The source of these data is US8338348B2, “Skin cleansing compositions with polyglycerol esters and hydrophobically modified polymers” (Johnson & Johnson Consumer Companies, Inc., priority 2010, dated 2012).

The subject of the data set is EpiDerm™ Skin Model. Briefly: Skin Irritancy Potential Test via in vitro skin equivalents (IL-1α release). In kind it is cell-based, human. The settings on record: Table 12; vs C30. From the text:
The EpiDerm™ Skin Model provided by MatTek Corporation was used in this study. The target cells are epithelial, derived from human skin. The test materials are applied directly to the culture surface, at air interface, so that undiluted and/or end use dilutions can be tested directly.
The experimental design used in this study consisted of a definitive assay to determine the release of one cytokine. Where tissue viability is not decreased by 50% as compared to the negative control tissue (as measured by MTT reduction), the inflammatory potential is then measured by the synthesis/release of the cytokine IL-1α.
In the treatment phase six skin equivalents are used for each diluted test product, individual results are averaged to provide overall response. 100 μl is applied to each equivalent for 1 hour of diluted product (10% dilution) exposure followed by 5 rinses of Ca, Mg Free PBS solution. Each Tissue is placed in a 6 well tray with assay medium for each rinse and returned to incubation for 24 hours. Following incubation tissues are assessed for cytokine responses of IL-1α.

Take Polyglycerol-10-Myristate [PG-10-M]: the “effect of PGE on mildness of the surfactant system” value is “improve the mildness”.

In the case of Polyglycerol-10-Oleate [PG-10-O], the “effect of PGE on mildness of the surfactant system” value is “improve the mildness”.
